For orientation: pIC50 means the negative decadic logarithm of the IC50, by convention in mol/L.

The target in the experiment is T1, Complex IV (cytochrome c oxidase) (Rattus norvegicus, UniProt P00406+P05503).
T1 construct: gene Mt-co1; native complex in saponin-permeabilized left ventricular (apex) cardiac fibers; dimer of 13 subunits per monomer; with Cytochrome c oxidase subunit 3; Cytochrome c oxidase subunit 4 isoform 1, mitochondrial; Cytochrome c oxidase subunit 5A, mitochondrial; Cytochrome c oxidase subunit 5B, mitochondrial; Cytochrome c oxidase subunit 6A2, mitochondrial; Cytochrome c oxidase subunit 6B1; Cytochrome c oxidase subunit 6C; Cytochrome c oxidase subunit 7A1, mitochondrial; Cytochrome c oxidase subunit 7B, mitochondrial; Cytochrome c oxidase subunit 7C, mitochondrial; Cytochrome c oxidase subunit 8B, mitochondrial
Kind of experiment: high-resolution respirometry (O2 consumption), permeabilized cardiac fibers. It is filed as biochemical. As to conditions: ascorbate 2 mM/TMPD 0.5 mM as complex IV substrates, pH 7.1, 30°C, 1 g/l BSA in medium. The source says: high-resolution respirometry (O2 consumption), permeabilized cardiac fibers on Complex IV (cytochrome c oxidase)

The structures appear in SMILES notation. pIC50: −log10 of the molar value.

`CCCCC/C=C\C/C=C\CCCCCCCC(=O)O[C@H](CC(=O)[O-])C[N+](C)(C)C` [C18∶2c, cis,cis-9,12-octadecadienoyl-L-carnitine] gave a pIC50 (Hillslope −1.58) of 4.18.

Consider `CCCCCCCCCCCCCCCC(=O)O[C@H](CC(=O)[O-])C[N+](C)(C)C` [C16∶0c, Palmitoylcarnitine], for which the negative-log IC50 (pIC50) (Hillslope −0.86) is 4.14.

For the origin of these results see paper PMC3907505, “The Mechanism of Intralipid®-Mediated Cardioprotection Complex IV Inhibition by the Active Metabolite, Palmitoylcarnitine, Generates Reactive Oxygen Species and Activates Reperfusion Injury Salvage Kinases” (PLoS ONE, 2014).
